Test results published in patent US20260092054A1, “FUSED RING COMPOUND AND PHARMACEUTICAL CONTAINING SAME” (KAKEN PHARMACEUTICAL CO., LTD., priority 2022, published 2026).

Assays:
human STAT6/pIL-4Rα = molecular target: T1, human STAT6/pIL-4Rα (Homo sapiens, UniProt P42226); assay: Binding inhibitory activity between human STAT6/pIL-4Rα by fluorescence polarization method; details: rhSTAT6 (123-658) / FAM-pIL-4Rα peptide
T1 construct: histidine tag
T1 sequence (P42226 123-658): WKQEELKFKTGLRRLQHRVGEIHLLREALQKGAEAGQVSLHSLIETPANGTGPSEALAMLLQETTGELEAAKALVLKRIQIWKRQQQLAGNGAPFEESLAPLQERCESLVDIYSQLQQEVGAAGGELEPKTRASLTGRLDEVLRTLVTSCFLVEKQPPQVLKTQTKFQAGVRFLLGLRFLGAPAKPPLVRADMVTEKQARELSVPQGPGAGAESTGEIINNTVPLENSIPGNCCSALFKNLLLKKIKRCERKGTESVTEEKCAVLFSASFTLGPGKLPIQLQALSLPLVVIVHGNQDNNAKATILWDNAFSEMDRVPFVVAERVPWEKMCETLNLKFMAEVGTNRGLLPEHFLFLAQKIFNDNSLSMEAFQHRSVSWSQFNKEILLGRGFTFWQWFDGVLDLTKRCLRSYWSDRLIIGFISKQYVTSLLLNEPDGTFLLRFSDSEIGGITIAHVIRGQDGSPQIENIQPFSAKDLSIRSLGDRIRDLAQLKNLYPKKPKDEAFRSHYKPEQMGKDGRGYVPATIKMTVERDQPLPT
Protocol: Test Example 1: Measurement of Binding Inhibitory Activity Between Human STAT6/pIL-p 4Rα by Fluorescence Polarization Method
1) Construction of Histidine Tag-Fused Recombinant Human STAT6 (123 to 658 Region)
A histidine tag-fused recombinant human STAT6 (hereinafter referred to as rhSTAT6) expression vector [plasmid DNA in which a nucleic acid sequence containing human STAT6 (123-658 region) was inserted into a pET28a(+) vector (Novagen)] was inserted into E. coli, and the cells were cultured overnight under culturing conditions at 17° C. with IPTG treatment. After disrupting E. coli with a high-pressure homogenizer (EmulsiFlex-C3, manufactured by AVESTIN, Inc.), affinity purification using Ni-NTA agarose (manufactured by Qiagen), cation exchange chromatography using HiTrap® CM-FF (manufactured by GE healthcare), and gel filtration chromatography using Superdex® 200 10/300GL (manufactured by GE healthcare) were performed to obtain rhSTAT6.
2) Measurement of Binding Inhibitory Activity Between Human STAT6/pIL-4Rα by Fluorescence Polarization Method
A DMSO solution of the example compound was diluted with an assay buffer [for example, a buffer containing 50 mmol/L NaCl, 10 mmol/L HEPES (pH 7.0), 1 mmol/L DTT, 1 mmol/L EDTA, and 0.01 vol % NP-40, and the like] to prepare a compound-added solution. The DMSO concentration in the compound addition solution was adjusted to 1 or 2 vol %. 10 μL of the compound addition solution and an assay buffer containing 1 or 2 vol % DMSO were added to each well of a 384-well plate. 5 μL of an assay buffer solution containing rhSTAT6 (rhSTAT6 concentration: for example, 1 μmol/L) or an assay buffer was added to each well of a 384-well plate. After leaving the plate at room temperature for 30 minutes in the dark, 5 μL of an assay buffer solution (FAM-pIL-4Rp concentration: for example, 80 nmol/L) containing FAM-labeled phosphorylated IL-4Rα peptide (sequence: FAM-Ala-pTyr-Lys-Pro-Phe-Gln-Asp-Leu-IIe-NH2) (hereinafter, FAM-pIL-4Rp) or an assay buffer containing 2 vol % DMSO was added to each well of the 384-well plate. The mixture was left to stand at room temperature for 30 minutes in the dark, and then centrifuged (200 g, 1 minute, room temperature). Fluorescence polarization values were measured using Infinite (registered trademark) F500 (manufactured by Tecan Japan Co., Ltd.) (Excitation: 485 nm, Emission: 535 nm). The inhibition rate of each Example compound was calculated according to the following formula using the fluorescence polarization value (A) when rhSTAT6 and FAM-pIL-4Rp were added without adding the Example compound, the fluorescence polarization value (B) when FAM-pIL-4Rp was added without adding the Example compound and rhSTAT6, and the fluorescence polarization value (C) when each Example compound, rhSTAT6, and FAM-pIL-4Rp were added.
In the evaluation of each example compound, the 50% inhibitory concentration (IC50) of each example compound was calculated from a linear function equation of a straight line connecting two points sandwiching 50%.

human STAT6 = assay: Human STAT6 dependent reporter activity (IL-4 stimulated STAT6 reporter assay using STAT6-HEK293 cells); type: cell-based; details: Homo sapiens, IL-4 stimulation, luciferase activity, read-out: Inhibition rate (%); for inhibition at 0.1 µM: compound 0.1 μmol/L; for inhibition at 1 µM: compound 1 μmol/L
Protocol: Test Example 2: Measurement of Human STAT6 Dependent Reporter Activity
1) Construction of Human STAT6-HEK293 Cells
HEK 293 cells maintenance cultured by [Penicillin-Streptomycin (Thermo Fisher Scientific) and FBS, 1 vol % and 10 vol % respectively added to DMEM high glucose (Thermo Fisher Scientific)](manufactured by ATCC) were collected, and suspended in 10 mL of 0.5% BSA/PBS. 1×10^6 cells were collected, the supernatant was removed by centrifuging, and the cells were suspended in 100 μL of Nucleofector solution V (manufactured by Lonza K.K.). 2 μg of STAT6 vector [plasmid DNAs incorporating human STAT6 sequences in pcDNA3.1 (Invitrogen)] was added, and the STAT6 vector was introduced into the HEK293 cells using the program Q-001 initially registered in the Nucleofector®2b. A cell line (STAT6-HEK293 cells) consistently expressing STAT6 was acquired by selecting resistant cells in a medium containing Geneticin® (manufactured by Thermo Fisher Scientific). 2) STAT6 reporter assay using STAT6-HEK293 cells 3×10^6 STAT6-HEK293 cells maintained in assay medium [culture medium supplemented with 1 vol % Geneticin®] were harvested and seeded in a 10 cm dish. 3 μg of a STAT6 reporter vector [plasmid in which a sequence containing a STAT6 binding sequence and a C/EBP binding sequence in tandem was incorporated into pGL4.27 (manufactured by Promega Corporation)] and 9 μL of FuGENE® HD transfection reagent (manufactured by Promega Corporation) were added to 500 μL of Opti-MEM® (manufactured by Thermo Fisher Scientific) to prepare transfection solutions. The transfection solution was vortexed and left to stand for about 5 minutes, then added dropwise to the STAT6-HEK293 cells, which were then cultured overnight in a C02 incubator to produce STAT6 reporter cells.
The prepared STAT6 reporter cells were seeded on B&W isoplate-96 TC (PerkinElmer Japan Co., Ltd.) (3×10^4 cells/50 μL/well) and cultured overnight in a C02 incubator (37° C., 5% C02). 50 μL of assay medium was added to each well instead of the STAT6 reporter cells. The compound addition solution was prepared by diluting the DMSO solution of the example compound 250-fold using the assay medium. 20 μL of compound addition solution or 0.4 vol % DMSO-containing assay medium was added to the plate, and the plate was then cultured in a CO2 incubator for 1 hour. 10 μL of 80 ng/mL human IL-4 solution (Peprotech) or assay medium was added to each well, and the cells were cultured in a CO2 incubator for 6 hours.
STAT6 reporter activity was measured using the Bright-Glo® Luciferase Assay System (Promega). 100 μL of Bright-Glo® reagent was added to each well, and luciferase activity was measured using Infinite® F500. The inhibition rate of each Example compound was calculated by the following formula using the luciferase activity value (G) when no Example compound was added and stimulation with IL-4 was performed, the luciferase activity value (H) when no Example compound was added and stimulation with IL-4 was not performed, and the luciferase activity value (I) when each Example compound was treated and stimulation with IL-4 was performed.
Note that the viable cell rate under each condition was 70% or more, and it was determined that the luciferase activity inhibitory activity of each example compound was appropriately evaluated.

Row | Compound | IC50 (human STAT6/pIL-4Rα) | inhibition at 0.1 µM (human STAT6) | inhibition at 1 µM (human STAT6)
1 | CCn1c(-c2ccc(N3C(=O)C(C)CC3C)cc2)nc2cc(C(F)(F)F)cc(C(=O)Nc3cccc(C(N)=O)c3)c21 (racemic) [Ex. 11] | 440 nM | 43% | 92%
2 | CCn1c(-c2ccc(N3C(=O)C(C)CC3C)cc2)nc2cc(C(F)(F)F)cc(C(=O)Nc3cccc(C(N)=O)c3)c21 (single isomer, unassigned) [Ex. 12] | 350 nM | 47% | 94%
3 | CCn1c(-c2ccc(N3C(=O)C(C)CC3C)cc2)nc2cc(C(F)(F)F)cc(C(=O)Nc3cccc(C(N)=O)c3F)c21 (single isomer, unassigned) [Ex. 219] | 280 nM | 32% | 96%
4 | CC1CC(C)N(c2ccc(-c3cc4ccnc(C(=O)Nc5ccc(F)c(C(N)=O)c5)c4n3CC3(C#N)CC3)cc2)C1=O (single isomer, unassigned) [Ex. 221] | 360 nM | 60% | 94%
5 | CC1CC(C)N(c2ccc(-c3cc4ccnc(C(=O)Nc5cccc(C(N)=O)c5F)c4n3CC3(C#N)CC3)cc2)C1=O (single isomer, unassigned) [Ex. 223] | 320 nM | 67% | 
6 | CCn1c(-c2ccc(-n3cnn(C)c3=O)cc2)nc2cc(C(F)(F)F)cc(C(=O)Nc3cccc(C(N)=O)c3F)c21 [Ex. 1] | 390 nM | 22% | 93%
7 | CCn1c(-c2ccc3c(c2)CCN3C(C)=O)nc2cc(C(F)(F)F)cc(C(=O)Nc3cccc(C(N)=O)c3F)c21 [Ex. 2] | 490 nM | 14% | 72%
8 | COCCn1c(-c2ccc(-n3c(C)nn(C)c3=O)cc2)cc2cc(C(F)(F)F)cc(C(=O)Nc3cccc(C(=O)Nc4ccn(C)n4)c3)c21 [Ex. 117] | 320 nM |  | 
9 | CCn1c(-c2ccc(-n3c(C)nn(C)c3=O)nn2)cc2cc(C(F)(F)F)cc(C(=O)Nc3ccc(F)c(C(N)=O)c3)c21 [Ex. 128] | 570 nM |  | 
10 | CCn1c(-c2ccc(-n3cnn(C)c3=O)cc2)c(Cl)c2cc(C(F)(F)F)cc(C(=O)Nc3cccc(C(N)=O)c3)c21 [Ex. 141] | 910 nM |  | 
11 | COCCn1c(-c2ccc(-n3c(C)nn(C)c3=O)cc2)cc2cc(C(F)(F)F)cc(C(=O)Nc3cccc(C(=O)O)c3)c21 [Ex. 162] | 300 nM |  | 
12 | CCn1c(-c2ccc(-n3c(C)nn(C)c3=O)cc2)cc2ccnc(C(=O)Nc3cccc(C(=O)O)c3)c21 [Ex. 164] | 320 nM |  | 
13 | COCCn1c(-c2ccc(-n3c(C)nn(C)c3=O)cc2)cc2cc(C(F)(F)F)cc(C(=O)Nc3cccc(C(=O)O)n3)c21 [Ex. 184] | 270 nM |  | 
14 | C/C=C/c1cc(C(=O)Nc2cccc(C(N)=O)c2)c2c(c1)nc(-c1ccc(N(C)C(C)=O)cc1)n2CCOC [Ex. 203] | 7060 nM |  | 
15 | CCCc1cc(C(=O)Nc2cccc(C(N)=O)c2)c2c(c1)nc(-c1ccc(N(C)C(C)=O)cc1)n2CCOC [Ex. 204] | 2350 nM |  | 
16 | COCCn1c(-c2ccc(N(C)C(C)=O)cc2)nc2cc(CCC(C)(C)OC)cc(C(=O)Nc3cccc(C(N)=O)c3)c21 [Ex. 205] | 8440 nM |  | 
17 | C#Cc1cc(C(=O)Nc2cccc(C(N)=O)c2)c2c(c1)nc(-c1ccc(N(C)C(C)=O)cc1)n2CCOC [Ex. 206] | 3620 nM |  | 
18 | C=Cc1cc(C(=O)Nc2cccc(C(N)=O)c2)c2c(c1)nc(-c1ccc(N(C)C(C)=O)cc1)n2CCOC [Ex. 207] | 2950 nM |  | 
19 | COCCn1c(-c2ccc(N(C)C(C)=O)cc2)nc2cc(C3CC3)cc(C(=O)Nc3cccc(C(N)=O)c3)c21 [Ex. 208] | 2080 nM |  | 
20 | COCCn1c(-c2ccc(N(C)C(C)=O)cc2)nc2cc(-c3ccccc3)cc(C(=O)Nc3cccc(C(N)=O)c3)c21 [Ex. 209] | 6600 nM |  | 
21 | COCCn1c(-c2ccc(N(C)C(C)=O)cc2)nc2cc(C(C)C)cc(C(=O)Nc3cccc(C(N)=O)c3)c21 [Ex. 210] | 2740 nM |  | 
22 | COCCn1c(-c2ccc(N(C)C(C)=O)cc2)nc2cc(CC(C)C)cc(C(=O)Nc3cccc(C(N)=O)c3)c21 [Ex. 211] | 4980 nM |  | 
23 | COCCn1c(-c2ccc(N(C)C(C)=O)cc2)nc2cc(C3CCCC3)cc(C(=O)Nc3cccc(C(N)=O)c3)c21 [Ex. 212] | 9030 nM |  | 
24 | COCCn1c(-c2ccc(N(C)C(C)=O)cc2)nc2cc(CO)cc(C(=O)Nc3cccc(C(N)=O)c3)c21 [Ex. 213] | 3470 nM |  | 
25 | COCCn1c(-c2ccc(N(C)C(C)=O)cc2)nc2cc(CC#N)cc(C(=O)Nc3cccc(C(N)=O)c3)c21 [Ex. 214] | 3980 nM |  | 
26 | COCCn1c(-c2ccc(N(C)C(C)=O)cc2)nc2cc(COC)cc(C(=O)Nc3cccc(C(N)=O)c3)c21 [Ex. 215] | 2940 nM |  | 
27 | COCCn1c(-c2ccc(-n3c(C)nn(C)c3=O)cc2)cc2cc(C(F)(F)F)cc(C(=O)Nc3cccc(NS(C)(=O)=O)n3)c21 [Ex. 217] | 590 nM |  | 
28 | C/C(=C\C(=O)N[C@H](C(=O)N1CCC[C@H]1C(=O)N(C)c1ccccc1)C(C)(C)C)c1ccc(OP(=O)(O)O)cc1 [PM-301H, reference compound] | 270 nM |  | 
